Test results as given in patent US6630127B2, “Method for assessing cortical response to blue light” (The McLean Hospital Corporation, priority 2000, dated 2003).

Experiments:
[1] = tested on: human primary visual cortex (V1); assay: fMRI BOLD study with alternating red and blue photic stimulation after oral d-amphetamine or placebo
[2] = tested on: visual cortex; details: photic stimulation paradigm, humans; cited from earlier work

| SMILES | Mean % BOLD signal change (all trials), V1, blue light stimulation ([1]; blue light 470 nm, 0.12 lux, 8 Hz, right and left V1 1x4 ROI, 2.5 mg d-amphetamine sulfate oral, N = 13) [%] | mean BOLD signal change higher in drug than in placebo condition, blue light ([1]; blue light, drug 2.04% versus placebo 1.60%, all trials) [%] | effect of time following drug administration on BOLD signal response to blue light ([1]; linear regression, 5 trials from about 18 min post-drug, Z=-2.471, P=0.013, decreasing BOLD signal over time) | effect of time following drug administration on BOLD signal response to red light ([1]; linear regression, 5 trials, Z=-0.470, P=0.638) | overall BOLD response to red and blue light ([1]; low dose (2.5 mg) d-amphetamine versus placebo) | Mean % BOLD signal change (all trials), V1, red light stimulation ([1]; red light 660 nm, 0.12 lux, 8 Hz, right and left V1 1x4 ROI, 2.5 mg d-amphetamine sulfate oral, N = 13) [%] | mean BOLD signal change higher in drug than in placebo condition, red light ([1]; red light, drug 1.24% versus placebo 0.95%, all trials) [%] | effect on BOLD signal / photic activation in visual cortex [2] |
| --- | --- | --- | --- | --- | --- | --- | --- | --- |
| C[C@H](N)Cc1ccccc1.C[C@H](N)Cc1ccccc1.O=S(=O)(O)O [d-amphetamine, d-amphetamine sulfate] | 2.04 | 28 | significant effect of time | no significant effect of drug over time | enhanced | 1.24 | 30 | – |
| CCO [ethanol] | – | – | – | – | – | – | – | inhibits photic activation |
